Measurements as given in patent US20200015478A1, “ANTIBACTERIAL COMPOSITION CONTAINING CARYOLAN-1-OL” (INDUSTRY-ACADEMIC COOPERATION FOUNDATION GYEONGSANG …, priority 2016, published 2020).

System: Botrytis cinerea
Assay: Mycelium growth rate of Botrytis cinerea with synthesized caryolan-1-ol vapour from paper disc
Assay type: cell-based
Details: Botrytis cinerea on PDA, 10 μl acetone solution on paper disc, sealed, 27° C., 4 days, FIG. 6
Description: Next, in order to verify the antibacterial activity of the synthesized caryolan-1-ol, PDA (Potato starch 4 g, dextrose 20 g, Agar 20 g with respect to 1 liter) medium was prepared so as to allow 60 mm Petri dishes to have 12 ml space. Botrytis cinerea was inoculated with a radius of 2 mm Based on the concentration at which caryolan-1-ol was completely gaseous, caryolan-1-ol was dissolved in acetone, and then the solution was treated to the paper disc placed on a lid at 10 μl each. After sealing, they were cultured at 27° C., and the growth rate of mycelium was measured for 4 days. The growth rate for the acetone treatment group was determined.

## CC12CCCC(O)(C1)C1CC(C)(C)C1CC2 (stereo not shown) [caryolan-1-ol]
  growth rate of mycelium relative to acetone treatment group: significantly inhibited the growth
